Assays:
Assay type in all cases: in vivo
[1] = system: barnyardgrass (Echinochloa crus-galli, ECHCG); test: Pre-emerge test, greenhouse herbicide activity screening; settings: pre-emerge, rated 14 days after application, 0 = no damage, 100 = complete death
Method in brief: (§1)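 Sandy loam pots; pre-emerge: sown 1 d pre-spray, surface-watered after, then bottom-watered. Post-emerge: sown 8–21 d before, 2–3 leaf stage, + 0.25% v/v NIS, bottom-watered. Acetone, 187 l/ha track spray, 15–1000 g ai/ha. 0–100 injury score, day 14.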

[2] = system: green foxtail (Setaria viridis, SETVI); test: as above; settings: pre-emerge, rated 14 days after application, 0 = no damage, 100 = complete death
Method in brief: as §1

[3] = system: sicklepod (Cassia obtusifolia, CASOB); test: as above; settings: pre-emerge, rated 14 days after application, 0 = no damage, 100 = complete death
Method in brief: as §1

[4] = system: velvetleaf (Abutilon theophrasti, ABUTH); test: as above; settings: pre-emerge, rated 14 days after application, 0 = no damage, 100 = complete death
Method in brief: as §1

[5] = system: johnsongrass (Sorghum halepense, SORHA); test: as above; settings: pre-emerge, rated 14 days after application, 0 = no damage, 100 = complete death
Method in brief: as §1

[6] = system: common ragweed (Ambrosia artemisizfolia L., AMBEL); test: as above; settings: pre-emerge, rated 14 days after application, 0 = no damage, 100 = complete death
Method in brief: as §1

[7] = system: lambsquarters (Chenopodium album, CHEAL); test: as above; settings: pre-emerge, rated 14 days after application, 0 = no damage, 100 = complete death
Method in brief: as §1

[8] = system: large crabgrass (Digitaria sanguinalis, DIGSA); test: as above; settings: pre-emerge, rated 14 days after application, 0 = no damage, 100 = complete death
Method in brief: as §1

[9] = system: ivyleaf morningglory (Ipomoea hederacea, IPOHE); test: as above; settings: pre-emerge, rated 14 days after application, 0 = no damage, 100 = complete death
Method in brief: as §1

[10] = system: upland rice (Oryza sp., var. Tebonnet, RICE); test: Post-emerge test, crop safety; settings: phytotoxicity rating 0-100 (0 no damage, 100 complete death), 14 days after application
Method in brief: as §1

[11] = system: field corn (Zea mays L., var. Dekalb 535, CORN); test: Post-emerge test, crop safety; settings: phytotoxicity rating 0-100 (0 no damage, 100 complete death), 14 days after application
Method in brief: as §1

[12] = system: upland rice (Oryza sp., var. Tebonnet, RICE); test: Pre-emerge test, crop safety; settings: pre-emerge, rated 14 days after application, 0 = no damage, 100 = complete death
Method in brief: (§2)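 Fourteen days after spraying, crop and weed injury was graded visually from 0, no effect, to 100, every plant dead. Test substances were dissolved in acetone and applied at 15–1000 g ai/ha with a flat-fan nozzle. Application was either pre-emergence, one day after sowing, or post-emergence at the 2–3 leaf stage.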

[13] = system: field corn (Zea mays L., var. Dekalb 535, CORN); test: Pre-emerge test, crop safety; settings: pre-emerge, rated 14 days after application, 0 = no damage, 100 = complete death
Method in brief: as §2

[14] = system: barnyardgrass (Echinochloa crus-galli, ECHCG); test: Post-emerge test, greenhouse herbicide activity screening; settings: phytotoxicity rating 0-100 (0 no damage, 100 complete death), 14 days after application
Method in brief: (§3)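 Herbicidal damage is scored 0 (none) to 100 (complete plant death) two weeks after a simulated field spray. Rates span 15–1000 g ai/ha, delivered in acetone at 187 l/ha. For post-emergence treatments, plants have 2–3 leaves and the spray carries 0.25% v/v non-ionic surfactant.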

[15] = system: green foxtail (Setaria viridis, SETVI); test: as above; settings: phytotoxicity rating 0-100 (0 no damage, 100 complete death), 14 days after application
Method in brief: as §3

[16] = system: sicklepod (Cassia obtusifolia, CASOB); test: as above; settings: phytotoxicity rating 0-100 (0 no damage, 100 complete death), 14 days after application
Method in brief: as §3

[17] = system: velvetleaf (Abutilon theophrasti, ABUTH); test: as above; settings: phytotoxicity rating 0-100 (0 no damage, 100 complete death), 14 days after application
Method in brief: as §3

[18] = system: johnsongrass (Sorghum halepense, SORHA); test: as above; settings: phytotoxicity rating 0-100 (0 no damage, 100 complete death), 14 days after application
Method in brief: as §3

[19] = system: common ragweed (Ambrosia artemisizfolia L., AMBEL); test: as above; settings: phytotoxicity rating 0-100 (0 no damage, 100 complete death), 14 days after application
Method in brief: as §3

[20] = system: lambsquarters (Chenopodium album, CHEAL); test: as above; settings: phytotoxicity rating 0-100 (0 no damage, 100 complete death), 14 days after application
Method in brief: as §3

[21] = system: redroot pigweed (Amaranthus retroflexus, AMARE); test: as above; settings: phytotoxicity rating 0-100 (0 no damage, 100 complete death), 14 days after application
Method in brief: as §3

[22] = system: large crabgrass (Digitaria sanguinalis, DIGSA); test: as above; settings: phytotoxicity rating 0-100 (0 no damage, 100 complete death), 14 days after application
Method in brief: as §3

[23] = system: ivyleaf morningglory (Ipomoea hederacea, IPOHE); test: as above; settings: phytotoxicity rating 0-100 (0 no damage, 100 complete death), 14 days after application
Method in brief: as §3

[24] = system: redroot pigweed (Amaranthus retroflexus, AMARE); test: Pre-emerge test, greenhouse herbicide activity screening; settings: pre-emerge, rated 14 days after application, 0 = no damage, 100 = complete death
Method in brief: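 Plants grown in 10 cm pots of sandy loam mix received acetone-dissolved compounds through a moving flat-fan nozzle. Doses ranged from 15 to 1000 g ai/ha. Pre-emerge pots were seeded one day earlier, post-emerge pots 8–21 days earlier. Fourteen days on, each pot was graded 0–100 for damage.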

SMILES: COc1c(Cl)cc(F)c(-n2c(=O)cc(C(F)(F)F)n(C)c2=O)c1N(C)C [Compound 1-11, 3-(4-chloro-2-dimehtylainino-6-fluoro-3-methoxyphenyl)-1-methyl-6-trifluoromethyl-2,4(1H, 3H)-pyrimidinedione]
- Pre-emerge Herbicidal Activity ECHCG (phytotoxicity rating, scale 0-100) ([1]; 63 g ai/ha): 0
- Pre-emerge Herbicidal Activity ECHCG (phytotoxicity rating, scale 0-100) ([1]; 250 g ai/ha): 95
- Pre-emerge Herbicidal Activity SETVI (phytotoxicity rating, scale 0-100) ([2]; 63 g ai/ha): 80
- Pre-emerge Herbicidal Activity SETVI (phytotoxicity rating, scale 0-100) ([2]; 250 g ai/ha): 100
- Pre-emerge Herbicidal Activity CASOB (phytotoxicity rating, scale 0-100) ([3]; 63 g ai/ha): 20
- Pre-emerge Herbicidal Activity CASOB (phytotoxicity rating, scale 0-100) ([3]; 250 g ai/ha): 60
- Pre-emerge Herbicidal Activity ABUTH (phytotoxicity rating, scale 0-100) ([4]; 63 g ai/ha): 100
- Pre-emerge Herbicidal Activity ABUTH (phytotoxicity rating, scale 0-100) ([4]; 250 g ai/ha): 100
- Pre-emerge Herbicidal Activity SORHA (phytotoxicity rating, scale 0-100) ([5]; 63 g ai/ha): 90
- Pre-emerge Herbicidal Activity SORHA (phytotoxicity rating, scale 0-100) ([5]; 250 g ai/ha): 98
- Pre-emerge Herbicidal Activity AMBEL (phytotoxicity rating, scale 0-100) ([6]; 63 g ai/ha): 50
- Pre-emerge Herbicidal Activity AMBEL (phytotoxicity rating, scale 0-100) ([6]; 250 g ai/ha): 100
- Pre-emerge Herbicidal Activity CHEAL (phytotoxicity rating, scale 0-100) ([7]; 63 g ai/ha): 100
- Pre-emerge Herbicidal Activity CHEAL (phytotoxicity rating, scale 0-100) ([7]; 250 g ai/ha): 100
- Pre-emerge Herbicidal Activity DIGSA (phytotoxicity rating, scale 0-100) ([8]; 63 g ai/ha): 90
- Pre-emerge Herbicidal Activity DIGSA (phytotoxicity rating, scale 0-100) ([8]; 250 g ai/ha): 100
- Pre-emerge Herbicidal Activity IPOHE (phytotoxicity rating, scale 0-100) ([9]; 63 g ai/ha): 20
- Pre-emerge Herbicidal Activity IPOHE (phytotoxicity rating, scale 0-100) ([9]; 250 g ai/ha): 90
- Post-emerge Herbicidal Activity RICE (crop damage) ([10]; 63 g ai/ha): 0
- Post-emerge Herbicidal Activity RICE (crop damage) ([10]; 250 g ai/ha): 0
- Post-emerge Herbicidal Activity CORN (crop damage) ([11]; 63 g ai/ha): 0
- Post-emerge Herbicidal Activity CORN (crop damage) ([11]; 250 g ai/ha): 0
- Pre-emerge crop damage RICE (phytotoxicity rating, scale 0-100) ([12]; 63 g ai/ha): 20
- Pre-emerge crop damage RICE (phytotoxicity rating, scale 0-100) ([12]; 250 g ai/ha): 70
- Pre-emerge crop damage CORN (phytotoxicity rating, scale 0-100) ([13]; 63 g ai/ha): 0
- Pre-emerge crop damage CORN (phytotoxicity rating, scale 0-100) ([13]; 250 g ai/ha): 60
- Post-emerge Herbicidal Activity ECHCG ([14]; 63 g ai/ha): 0
- Post-emerge Herbicidal Activity ECHCG ([14]; 250 g ai/ha): 0
- Post-emerge Herbicidal Activity SETVI ([15]; 63 g ai/ha): 0
- Post-emerge Herbicidal Activity SETVI ([15]; 250 g ai/ha): 50
- Post-emerge Herbicidal Activity CASOB ([16]; 63 g ai/ha): 0
- Post-emerge Herbicidal Activity CASOB ([16]; 250 g ai/ha): 0
- Post-emerge Herbicidal Activity ABUTH ([17]; 63 g ai/ha): 70
- Post-emerge Herbicidal Activity ABUTH ([17]; 250 g ai/ha): 100
- Post-emerge Herbicidal Activity SORHA ([18]; 63 g ai/ha): 0
- Post-emerge Herbicidal Activity SORHA ([18]; 250 g ai/ha): 0
- Post-emerge Herbicidal Activity AMBEL ([19]; 63 g ai/ha): 10
- Post-emerge Herbicidal Activity AMBEL ([19]; 250 g ai/ha): 10
- Post-emerge Herbicidal Activity CHEAL ([20]; 63 g ai/ha): 50
- Post-emerge Herbicidal Activity CHEAL ([20]; 250 g ai/ha): 95
- Post-emerge Herbicidal Activity AMARE ([21]; 63 g ai/ha): 40
- Post-emerge Herbicidal Activity AMARE ([21]; 250 g ai/ha): 60
- Post-emerge Herbicidal Activity DIGSA ([22]; 63 g ai/ha): 0
- Post-emerge Herbicidal Activity DIGSA ([22]; 250 g ai/ha): 0
- Post-emerge Herbicidal Activity IPOHE ([23]; 63 g ai/ha): 40
- Post-emerge Herbicidal Activity IPOHE ([23]; 250 g ai/ha): 70
- Pre-emerge Herbicidal Activity AMARE (phytotoxicity rating, scale 0-100) ([24]; 63 g ai/ha): 100
- Pre-emerge Herbicidal Activity AMARE (phytotoxicity rating, scale 0-100) ([24]; 250 g ai/ha): 100

Source: patent publication US6355799B1, “Substituted benzene compounds, process for their preparation, and herbicidal and defoliant compositions containing them” (ISK Americas Incorporated, priority 1997, dated 2002)
